Laboratory results taken from patent publication US12491203B2, “Use of mannose 6 phosphate and modifications thereof for memory enhancement and reducing memory impairment” (New York University, priority 2018, dated 2025).
Entries after “also recorded” stand apart in the source; their conditions may differ.

Key:
Ube3a-/+ (AS) mice = assay: novel object recognition (nOR) paradigm in mouse model of Angelman syndrome; format: in vivo
Experimental: (§1) FIG. 2. M6P reverses object recognition memory deficits in a mouse model of Angelman syndrome and enhances memory in WT mice. Experimental timelines are shown above graphs. In all experiments mice received a s.c. injection of vehicle or M6P (↑) 20 min before nOR training or testing. Percent exploration preference for a novel object compared to a familiar object during novel object recognition of WT (Control) and Ube3a−/+(AS) mice injected with vehicle or M6P (labeled as IGF-2R.L1), 20 min before training, tested at 4 h and 24 h after training. N=4/group. All data are expressed as the mean (±s.e.m.). Two-way analysis of variance (ANOVA) followed by Tukey post-hoc tests. *P<0.05, **P<0.01, ***P<0.001.
(§2) FIG. 6. PnM6P (L2) reverses object recognition memory deficits in a mouse model of Angelman syndrome. Experimental timeline is shown above graphs. Mice received a s.c. injection of either vehicle or 850 μg/Kg of phosphonate-M6P (PnM6P) called IGF-2R.L2 (or L2) (↑) 20 min before either training or testing. (A) Percent exploration preference for a novel object compared to a familiar object during the nOR paradigm of wild type (WT served as Control mice) and Ube3a−/+(AS) mice injected with vehicle or L2 before training, and tested at 4 h, 24 h and 5 days (5d) after training. N=4/group. Data are expressed as the % mean±s.e.m. (B). Total time spent exploring the 2 objects during the nOR training session of WT and AS mice injected with vehicle or L2 20 min before training. N=4/per group. […] Data are expressed in seconds (s). Two-way analysis of variance (ANOVA) followed by Bonferroni post-hoc tests. *P<0.05, **P<0.01, ***P<0.001.
Specifically, we used the novel object recognition (nOR) paradigm in mice to assess non-aversive episodic memory. In this task, the innate preference for novelty of the rodent is used. During training, the mouse is allowed to explore 2 identical objects. On test day, one of the training objects is replaced with a novel object. Because mice have an innate preference for novelty, if the mouse recognizes the familiar object, it will spend more time at the novel object.

[1] = test system: normal (wild type, WT) mice; assay: novel object recognition (nOR) paradigm in normal (wild type) mice; format: in vivo, mouse
Experimental: FIG. 1. Dose-response curve of the effect of M6P, also called IGF2R.L1 (L1) on nOR in normal (wild type, WT) mice. Experimental timeline is shown above graphs. Data are expressed as the mean±s.e.m. N=4 per group. One-way analysis of variance (ANOVA) followed by Bonferroni post-hoc tests. *P<0.05, **P<0.01. WT mice were injected s.c. with vehicle solution or different doses of IGF2R.L1 (L1) 20 min prior to training on nOR. Graphs show percent exploration preference for the novel object compared to the familiar object at testing performed at 4 h and 24 h after training.
as §1
FIG. 4. An M6P derivative, phosphonate M6P (PnM6P), enhances memory in mice. Experimental timeline is shown above graphs. Mice received a s.c. injection of either vehicle or 850 μg/Kg of phosphonate-M6P (PnM6P) called IGF-2R.L2 (or L2) (↑) 20 min before training. (A) Percent exploration preference for a novel object compared to a familiar object during the nOR paradigm of mice injected with vehicle or L2 20 min before training, and tested at 24 h (Test 1), 5 days (Test 2) and 14 days (Test 3) after training. N=8-10/group. Data are expressed as the % mean±s.e.m. (B). Total time spent exploring both objects during the nOR training session of mice injected with vehicle or L2 20 min before training. N=4 per group. […] Data are expressed in seconds (s). Two-way analysis of variance (ANOVA) followed by Bonferroni post-hoc tests. *P<0.05, **P<0.01, ***P<0.001.
FIG. 5. Comparing M6P (L1) and PnM6P (L2) effects on memory retention: both L1 and L2 similarly enhance nOR in mice. Experimental timeline is shown above graphs. Mice received a s.c. injection of either vehicle or 850 μg/Kg of phosphonate-M6P (PnM6P) called IGF-2R.L2 (or L2) or 850 μg/Kg of M6P (IGF-2R.L1 or L1) (↑) 20 min before training. (A) Percent exploration preference for a novel object compared to a familiar object during the nOR paradigm of mice injected with vehicle, L2 or L1 20 min before training, and tested at 24 h (Test 1), 5 days (Test 2) and 14 days (Test 3) after training. N=4-10/group. Data are expressed as the % mean±s.e.m. (B). Total time spent exploring both objects during the nOR training session of mice injected with vehicle, L2 or L1 20 min before training. N=2-4 per group. […] Data are expressed in seconds (s). Two-way analysis of variance (ANOVA) followed by Bonferroni post-hoc tests. *P<0.05, **P<0.01, ***P<0.001.
as §2, with “Two-way analysis of variance (ANOVA) followed by Bonferroni post-hoc tests. *P<0.05, **P<0.01, ***P<0.001.” left out

adult rats = assay: inhibitory avoidance (IA) contextual fear memory task, intra-hippocampal injection; format: in vivo, rat; conditions: for avoidance memory (latency) vs vehicle: bilateral intra-hippocampal injection immediately after training
Experimental: FIG. 3. M6P injected into the hippocampus of rats enhances memory: dose-response curve. Experimental timeline is shown above graph. Rats received a bilateral intra-hippocampal injection of vehicle or different doses of IGF-2R.L1 (M6P) (↑) immediately after training in the contextual fear memory task inhibitory avoidance (IA). Memory retention was then tested at 24 hours (T1) and 7 days (T2) after training. Testing measured the latency to enter the compartment in which the animals received a foot shock during training. N=12/group. All data are expressed as the mean (±s.e.m.). Two-way repeated measures analysis of variance (ANOVA) followed by Bonferroni post-hoc tests. *P<0.05, **P<0.01, ***P<0.001. […] In these experiments, adult rats were trained in the inhibitory avoidance (IA) paradigm. In this paradigm the animals learn to avoid a chamber paired with a foot-shock.

[2] = WT mice, 850 μg/Kg s.c. 20 min before training, tested 14 days after training

SMILES | nOR memory deficit reversal (Ube3a-/+ (AS) mice; 850 μg/Kg s.c. 20 min before training, tested 4 h after training (FIG. 6)) | nOR memory vs vehicle (Ube3a-/+ (AS) mice; 850 μg/Kg s.c. 20 min before training, tested 24 h after training (FIG. 6)) | nOR memory vs vehicle ([1]; WT mice, 850 μg/Kg s.c. 20 min before training, tested 4 h after training (FIG. 6)) | nOR memory retention vs vehicle ([1]; WT mice, 850 μg/Kg s.c. 20 min before training, tested 24 h after training) | nOR memory retention vs vehicle ([1]; WT mice, 850 μg/Kg s.c. 20 min before training, tested 5 days after training) | nOR memory retention vs vehicle [1, 2] | nOR memory deficit reversal (Ube3a-/+ (AS) mice; s.c. injection 20 min before training, tested 4 h after training (FIG. 2)) | nOR memory retention vs vehicle (Ube3a-/+ (AS) mice; s.c. injection 20 min before training, tested 24 h after training (FIG. 2)) | nOR memory (exploration preference for novel object) vs vehicle ([1]; WT control mice, s.c. injection 20 min before training, tested 4 h after training (FIG. 2)) | nOR memory retention vs vehicle ([1]; WT control mice, s.c. injection 20 min before training, tested 24 h after training (FIG. 2)) | avoidance memory (latency) vs vehicle (adult rats; retested 6 days later (7 days after training, T2)) | avoidance memory (latency) vs vehicle (adult rats; tested 1 day (24 h, T1) after training) | dose dependence of memory-enhancing effect (adult rats; bilateral intra-hippocampal injection, different doses)
COC1OC(CCP(=O)(OCOC(=O)OC(C)C)OCOC(=O)OC(C)C)C(O)C(O)C1O [L2, Methyl 6-Deoxy-6-diisopropyloxycarbonyloxy-methyl-phosphinylmethyl-α-D-mannopyranoside] | reversed memory deficits in AS mice | significant memory in both groups | enhanced memory | significantly increased memory retention at both timepoints; also recorded: significant memory in both groups | significantly increased memory retention at both timepoints | memory enhancement was no longer seen; also recorded: returned to baseline | – | – | – | – | – | – | –
O=C[C@@H](O)[C@@H](O)[C@H](O)[C@H](O)COP(=O)(O)O [L1, mannose-6-phosphate] | – | – | – | – | – | returned to baseline | reversed memory deficits in AS mice | significantly increased memory retention in both groups | significant memory enhancement | significantly increased memory retention in both groups | effect persisted | significant increase in avoidance memory | dose dependent
